Test results reported in patent US9408832B2, “LIM kinasemodulating agents for neurofibromatoses therapy and methods for screening for same” (University of Central Florida Research Foundation, Inc., priority 2012, dated 2016).
Several values for one entry are separate records, joined by “and”; a condition that tells them apart may be missing. Equal entries are not always repeated. Entries after “also recorded” stand apart in the source; their conditions may differ.

How the values were obtained:
[1] = tested on: caspase 3/7 activity; experiment: Caspase-3/7 activity (Apo-ONE Homogeneous Assay) in merlin-null Schwann cells; format: cell-based, mouse; conditions: for mechanism of apoptotic death in context of the Apo-One assay result: 384-well format, 8 hours
Experimental: (§1) FIGS. 10 A-C. Phenotypic Apoptosis Assays. (A). Merlin-null Schwann cells in a 384-well format were incubated with the indicated compounds for 8 hours. Caspase-3/7 activity was measure with Apo-ONE Homogeneous Assay (Promega). n=32 wells. (B). Merlin-null Schwann cells in a 6-well format were treated with compounds (10 uM) for 24 hours. Membrane asymmetry was detected with Violet Ratiometric assay and read on a BD Cantos II flow cytometer. (C). Population distribution for B is shown.
In yet another aspect, compounds may be identified which induce programmed cell death or inhibit proliferation of Merlin-null Schwann cells. Merlin-pathway assays may be conducted to identify the subset of compounds that modulate the activity of known merlin pathways. The effector caspase cascade is activated in many extrinsic and intrinsic cell death pathways^29. The CPCCG has an established HTS assay that measures caspase-3 activity based on the cleavage and enzymatic degradation of a fluorescent substrate containing the amino acid motif DEVD (DEVD-7-amino-4-trifluoromethyl coumarin, DEVD-AFC). Briefly, Merlin-null Schwann cells may be dispensed and test compounds added, and incubated as described for the primary screening assay. The effect of compounds on caspase-3 activity can be measured by first lysing the cells and centrifuging to pellet the debris. Next, 20 μl of 2× reaction buffer may be added, followed by 1 μL, DTT (0.01M final). Finally, 1uL of DEVD-AFC may be added and the plate may be incubated at 37° C. for 1.5 h. Enzyme activity may be measured on an Envision plate reader at Ex400 nm/Em505 nm. The enzyme activity may be calculated from a standard curve generated using recombinant caspase-3 enzyme (R&D System, Inc.) and expressed as fold-increase in activity. […] Transfer of phosphatidylserine and phosphatidylethanolamine from the inner to the outer leaflet of the plasma membrane changes the membrane potential that is detected by F2N12S. […]

[2] = tested on: mouse merlin-null Schwann cells; experiment: BrdU/7-AAD flow cytometry assay; format: cell-based
Experimental: (§2) FIGS. 11A-D. Phenotypic Proliferation Assays. (A) Merlin-null Schwann cells (384-well format) were treated with the indicated compounds and concentrations for 24 hours and labeled with EdU during the last 9 hours. Incorporation of EdU into S-phase cells was read on a Biotek H1 Hybrid reader. (B) The plate was also imaged with a Trophos high resolution fluorescence Plate Runner. (C). […] The cell population profile is shown and was analyzed using the ModFit program. (D). Merlin-null Schwann cells were grown as in C but were labeled with BrdU during the final 3 hours of treatment then stained with 7AAD. The distribution of BrdU- and 7AAD-labelled cells is shown and was analyzed with Diva program. The BD Cantos II flow cytometer was used above.
In yet another aspect, identification of compounds that affect proliferation of Merlin-null mouse Schwann cells can be performed by conducting a Click-iT EdU Microplate Assay (Life Technologies) in the 384 well-plate format and then follow-up with BrdU/7AAD and propidium iodide flow cytometer assays. […] The EdU-Click-iT assay uses a 2-step procedure to identify cells in the S-phase of the cell cycle. EdU (5-ethynyl-2′-deoxyuridine) is a DNA analog that has been modified with an alkyne and is incorporated by cells in S phase. It reacts with Alexa-Fluor-Oregon green azide in the presence of a copper solution to form a covalent bond. Fluorescence emission is measured on a Hybrid HT plate reader (FIG. 11A) as well as on a Trophos Plate RUNNER HD that captures images of the wells (FIG. 11B). This allows confirmatory cell counts to be obtained. Cell cycle profiles were collected using propidium iodide (PI) labeling of log-phase growing Merlin-null Schwann cells (FIG. 11C). The results were confirmed by acquiring the ratio of BrdU-positive to total 7AAD-labelled cells in an independent assay (FIG. 11D).

[3] = tested on: cofilin phosphorylation; experiment: Cofilin phosphorylation in mouse Schwann cells (summary statement); format: cell-based
[4] = tested on: mouse merlin-null Schwann cells; experiment: Crystal Violet cell number assay; format: cell-based
[5] = tested on: cofilin phosphorylation (substrate for LIMK); experiment: Western blot of cofilin phosphorylation in normal rat Schwann cells; format: cell-based; conditions: 6 hours
[6] = tested on: mouse merlin-null Schwann cells; experiment: Propidium iodide flow cytometry cell cycle assay; format: cell-based
Experimental: as §2
In yet another aspect, identification of compounds that affect proliferation of Merlin-null mouse Schwann cells can be performed by conducting a Click-iT EdU Microplate Assay (Life Technologies) in the 384 well-plate format and then follow-up with BrdU/7AAD and propidium iodide flow cytometer assays. […] The EdU-Click-iT assay uses a 2-step procedure to identify cells in the S-phase of the cell cycle. […] Fluorescence emission is measured on a Hybrid HT plate reader (FIG. 11A) as well as on a Trophos Plate RUNNER HD that captures images of the wells (FIG. 11B). […]

[7] = tested on: mouse merlin-null Schwann cells; experiment: Violet Ratiometric membrane asymmetry / dead cell apoptosis flow cytometry assay; format: cell-based; conditions: 24 hours
Experimental: as §1
In yet another aspect, compounds may be identified which induce programmed cell death or inhibit proliferation of Merlin-null Schwann cells. Merlin-pathway assays may be conducted to identify the subset of compounds that modulate the activity of known merlin pathways. The effector caspase cascade is activated in many extrinsic and intrinsic cell death pathways^29. […] The effect of compounds on caspase-3 activity can be measured by first lysing the cells and centrifuging to pellet the debris. […] Enzyme activity may be measured on an Envision plate reader at Ex400 nm/Em505 nm. The enzyme activity may be calculated from a standard curve generated using recombinant caspase-3 enzyme (R&D System, Inc.) and expressed as fold-increase in activity. […] Transfer of phosphatidylserine and phosphatidylethanolamine from the inner to the outer leaflet of the plasma membrane changes the membrane potential that is detected by F2N12S. […]

[8] = tested on: mouse merlin-null Schwann cells; experiment: MultiTox-Fluor cell viability assay with merlin-null Schwann cells (NF2-MTC)
Experimental: To ascertain whether this cell line was amenable to a HTS platform, the present inventors tested cell adherence and growth on several types of 384-well plates. Wells were seeded at varying cell densities (2,500-20,000 cells/well) and the ratio of live:dead cells was measured 24 hours later using the MultiTox-Fluor Multiplex Cytotoxicity Assay (Promega). This assay uses fluorescent probes to measure protease activities from live and dying cells. […] Therefore, the DMSO concentration for screening will be maintained at 0.5%.

[9] = 5 μM, 24 hr, BrdU for the last 3 hr

N#C/C(=C\c1ccc(-c2cc(Cl)ccc2Cl)o1)C(=O)Nc1cccc2ncccc12 [AGK2]
mechanism of apoptotic death in context of the Apo-One assay result [1]: caspase3/7-independent | anti-proliferative effects on the cells ([2]; 24 hours of drug treatment, S-phase labelling for the final 3 hours): did not reveal clear anti-proliferative effects

CC(C)C(=O)Nc1ncc(-c2cc(C(F)F)nn2-c2c(Cl)cccc2Cl)s1 [BMS-5]
cofilin phosphorylation in mouse Schwann cells (in words) [3]: reduced cofilin phosphorylation | change in the number of cells after 72 hours ([4]; 2 μM): no change | cell number compared to untreated or DMSO controls ([4]; 1 and 2 μM, 72 hours): decrease in the cell number | mechanism of apoptotic death in context of the Apo-One assay result [1]: caspase3/7-independent | difference in caspase 3/7 activity versus untreated or DMSO controls ([1]; 8 hours incubation, increasing doses): no significant difference | IC50 ([5]; Western blot, read-out: amount needed to reduce cofilin phosphorylation by 50% of the untreated control): 0.2 µM | cofilin phosphorylation (dose response, in words) ([5]; increasing BMS-5): reduces the amount of cofilin phosphorylation; also recorded: cofilin phosphorylation decreases | increase of cells in G2/M phase ([6]; 5 μM, 17 hr, Propidium Iodine staining): more than 100% | cell cycle profile (PI labeling and BrdU profiles, in words) ([6]; 5 uM, 22 hours): accumulate in G2/M | number of cells with plasma membrane asymmetry ([7]; 2 μM): does not significantly increase | cells in G0/G1 and S phase [2, 9]: massive depletion | number of cells in G2/M [2, 9]: moderate increase; also recorded: moderately increase | MTC number / proliferation with increasing concentration (in words) ([8]; 24 hours, various inhibitor concentrations): inhibited proliferation; also recorded: dose-respondent inhibition | MTC viability compared to DMSO control (in words) ([8]; BMS-5 5 μM, 24 hours): reduced MTC viability | EC50 ([8]; read-out: EC50: concentration that reduces the number of merlin-null Schwann cells by 50% of control, 24 hours, 96-well format, 32 replicates/concentration): 1.96 µM and ~2 µM

COc1ccc2c(c[n+](C)c3c4cc5c(cc4ccc23)OCO5)c1OC.[Cl-] [CHE, cheleryithrine chloride]
apoptotic death (Q1+Q3), share of Merlin-null Schwann cells ([7]; 10 uM, 6-well format, flow cytometer): 93%

FC(F)(F)c1ccc(/C=C/c2nc(COc3ccc(CCCCn4ccnn4)cc3)co2)cc1 [TAK 165]
MTC viability compared to DMSO control (in words) ([8]; TAK 165 50 nM, positive control): effective in reducing MTC viability

CO[C@H]1C[C@@H]2CC[C@@H](C)[C@@](O)(O2)C(=O)C(=O)N2CCCC[C@H]2C(=O)O[C@H]([C@H](C)C[C@@H]2CC[C@@H](O)[C@H](OC)C2)CC(=O)[C@H](C)/C=C(\C)[C@@H](O)[C@@H](OC)C(=O)[C@H](C)C[C@H](C)/C=C/C=C/C=C/1C [rapamycin, Rapamycin]
viability of cells, % of the DMSO control ([8]; 50 μM rapamycin, 384-well plate, 5,000 cells/well): 20+/−1.4%
